Measurements taken from US20110135651A1, “METHOD AND COMPOSITION FOR ENHANCING HEMATOPOIETIC STEM CELL MOBILIZATION” (Children's Hospital Medical Center, priority 2008, published 2011).
Each block holds one molecule with its values, some of them ahead of it.

Assays:
[1] = system: hematopoietic stem and progenitor cells (HSPCs); assay: G-CSF induced HSPC mobilization, colony forming cell (CFC) assay of peripheral blood; format: in vivo, mice
Method: As mobilization efficiency of HSPC is a quantitative trait, quantitative trait locus (QTL) analysis was chosen as an approach to identify regulators of mobilization efficiency. Mice were mobilized with huG-CSF (Amgen) at 12.5 μg/ml in PBS/0.1% BSA and administered i.p. at 100 μg/kg/day once a day for 5 days and animals were analyzed on day 6. Murine recombinant EGF (0.2-3.6 μg/g) (Prepro tech, Rocky Hill, N.J.) was dissolved in PBS and administered i.p. on the last day of the G-CSF regimen. Erlotinib (2.5-100 mg/kg) was dissolved in methylcellulose and administered by gavage on day 3, 4, and 5 of the G-CSF regimen. A specific Cdc42 inhibitor (0.5 mg/ml) was dissolved in PBS containing 15% ethanol and administered by tail vain 18 h after the last G-CSF injection. Mobilization efficiency was determined with HSPC obtained approximately 14-16 hours after the last injection received by the group of mice.
Colony forming cell assays. 150 μl of peripheral blood (PB) was added to Hank's balanced salt solution (HBSS) and mixed with 4 ml of methylcellulose (Stem Cell Technologies) containing 50 ng/ml rm SCF, 10 ng/ml rm IL-3 and 10 ng/ml rh JL-6 and incubated at 37° C. Samples were plated in triplicate in 6 well plates (Falcon) and colonies of more than 50 cells were counted between 7 to 10 days. CFC counts were also determined in spleen (1×10^5) using the same protocol. The results are presented as mean±s.d. A paired student's t-test was used to determine the significance of the difference between means of two groups. Values were considered significant when p<0.05.

hematopoietic stem cells = assay: Competitive transplantation of mobilized peripheral blood to measure stem cell frequency (donor chimerism); format: in vivo, mice
Method: Transplantations/Competitive transplantations. BM cells were harvested and pooled from the tibia and the femur of 6-8 week old mice (donor) as well as B6.5JL(BoyJ) (competitor) mice. […] BM cells were subsequently transplanted into the retro-orbital sinus in a volume of 200 μA in IMDM/2% FCS.
Flow cytometry. Immunostaining and flow cytometry analyses were performed according to standard procedures and analyzed on a FacsCanto flow cytometer (BD Biosciences). Anti-Ly5.2 (clone 104, BD Biosciences, FITC conjugated) and anti-Ly5.1 (clone A20, BD Biosciences, PE conjugated) monoclonal antibodies were used to distinguish donor from recipient and competitor cells. For lineage analysis in hematopoietic tissues, anti-CD3ε (clone 145-2C11, PE-Cy7 conjugated), anti-B220 (clone RA3-6B2, APC conjugated), anti-CD11b (clone M1/70, APC-Cy7 conjugated) and anti-Gr-1 (clone RB6-8C5, APC-Cy7 conjugated, all from BD Biosciences) were used.

[2] = system: BM derived progenitor cells adhering to FBMD-1 stromal cells; assay: CAFC progenitor adhesion assay on FBMD-1 stroma; format: cell-based, mice; conditions: BM derived HSPCs from G-CSF treated animals
Method: CAFC progenitor adhesion assays. FBMD-1 cells were seeded in IMDM supplemented with 15% FCS and 5% horse serum (Gibco) at a density of 1000 cells per well in a 96 well plate. BM cells were plated onto the FBMD-1 stroma cell line at 3000, 1500, 750 and 375 cells per well at 15 wells per cell concentration in CAFC medium (IMDM, supplemented with 20% horse serum (Gibco) and 10^−5 M hydrocortisone (Sigma)). To determine progenitor cell adhesion, non-adherent cells were washed off the FBMD-1 stroma after 2 hours and fresh CAFC medium was added to each well. The frequency of total HSPCs and adherent HSPCs was determined by counting the frequency of cobblestone areas at day 7 on the FBMD-1 stroma cell line.

Cdc42 = assay: Rho-GTPase effector domain pull-down assay, Cdc42; format: in vivo, mice; conditions: for Cdc42 activity (GTP-bound form) in BM cells: in vivo in G-CSF treated animals, compared to G-CSF treatment alone (FIG. 7c, 7d)
Method: (§1) Rho-GTPase effector domain pull-down assays. Relative levels of GTP-bound RAC1, RAC2 and CDC42 were determined by an effector pull-down assay. Briefly, low density bone marrow cells (1×107) were lysed in a Mg2+ lysis/wash buffer (Upstate cell signaling solutions) containing 10% glycerol, 25 mM sodium fluoride, 1 mM sodium orthovanadate and a protease inhibitor cocktail (Roche Diagnostics). Samples were incubated with PAK-1 binding domain/agarose beads and bound (activated) as well as unbound (non-activated) Rho GTPases were probed by immunoblotting with antibodies specific for RAC1 (Upstate), RAC2 (Novus Biologicals) and CDC42 (BD Biosciences). Activated protein was normalized to total protein and β-actin (Sigma) and the relative amount was quantified by densitometry.

Rac1 = assay: Rho-GTPase effector domain pull-down assay, Rac1; design: species or system mice; conditions: in vivo in G-CSF treated animals (data not shown)
Method: as §1

Rac2 = assay: Rho-GTPase effector domain pull-down assay, Rac2; design: species or system mice; conditions: in vivo in G-CSF treated animals (data not shown)
Method: as §1

[3] = molecular target: epidermal growth factor receptor (EGFR), mouse, wild type, on hematopoietic stem and progenitor cells (mouse) (UniProt Q01279); assay: cell-based or functional assay
EGFR = EGFR expression in BM HSPCs by real time Q-RT-PCR; format: in vivo, mice; conditions: upon G-CSF treatment (FIG. 3a)
Excerpt: Whole genome expression analysis. RNA from sorted Lin-C-Kit+ cells were obtained with the Qiagen RNA assay micro kit according to the protocol of the manufacturer. RNA was subsequently linear amplified by the Affymetrix core at CCHMC and reverse transcribed with a Nugene Kit according to the manufacturer protocol. Labeled cDNA was then hybridized to and MOE430 array (Affymetrix) and raw expression data collected. Affymetrix .CEL files of the respective microarrays were imported into the statistical programming language R (www.r-project.org) using the affy Bioconductor (www.bioconductor.org) package. The data were then pre-processed (log2-transformed, background corrected, quantile normalized and summarized) using the rma function of the affy package. Affymetrix probes were filtered and re-grouped during summarization according to RefSeq annotation using custom chip description files (.CDF) for the MOE430 array provided by the Molecular and Behavioral Neuroscience Institute of the University of Michigan (Microarray Lab), http://brainarray.mbni.med.umich.edu/Brainarray/Database/CustomCDF/genomic_curated_CDF.asp). The expression level of the EGFR was subsequently confirmed by a Taqman real time PCR assay kit from Applied Biosystems (Assay ID: Mm01187863_g1)

level of the GTP bound form of Rac1 (Rac1): did not detect a significant change
level of the GTP bound form of Rac2 (Rac2): did not detect a significant change
Molecule: C#Cc1cccc(Nc2ncnc3cc(OCCOC)c(OCCOC)cc23)c1 [Erlotinib, reference compound]
mobilization efficiency of progenitor cells ([1]; Erlotinib 2.5-10 mg/kg over last 3 days of G-CSF regimen vs G-CSF (FIG. 5e)): significantly increased
mobilization efficiency of stem cells (hematopoietic stem cells; Erlotinib 2.5-10 mg/kg over last 3 days of G-CSF regimen vs G-CSF, competitive transplantation read-out): significantly increased
adhesion of progenitor cells to stroma ([2]; Erlotinib 10 mM (FIG. 7b)): significantly reduced adhesion
Cdc42 activity (GTP-bound form) in BM cells (Cdc42): significant decrease

level of the GTP bound form of Rac1 (Rac1): did not detect a significant change
level of the GTP bound form of Rac2 (Rac2): did not detect a significant change
Molecule: EGF: Murine recombinant EGF (epidermal growth factor), activating ligand of EGFR
reduction of mobilization efficiency of progenitor cells ([1]; G-CSF stimulated animals, single dose EGF 0.8 μg/g on last day of G-CSF regimen (FIG. 3b)): approx. 4 fold
mobilization efficiency of progenitor cells ([1]; G-CSF stimulated animals, single dose EGF 0.2-1.0 on last injection day of G-CSF regimen (FIG. 3b)): dose-dependent inhibition
sensitivity to inhibition of mobilization efficiency by EGF ([1]; congenic line 1804 compared to B6 mice, G-CSF and EGF treatment (FIG. 3g)): significantly less sensitive
spontaneous mobilization ([1]; non-G-CSF treated animals, EGF dose range tested (data not shown)): did not restrict
mobilization efficiency ([1]; wa2+/- mice, G-CSF plus single injection of EGF on day 5 vs G-CSF alone (FIG. 3d)): unaffected
mobilization efficiency ([1]; wild type mice, G-CSF plus single injection of EGF on day 5 vs G-CSF alone (FIG. 3c)): significantly reduced
reduction of contribution to chimerism 3 months post transplant (stem cells mobilized to PB) (hematopoietic stem cells; G-CSF plus EGF (0.8 μg/g) vs G-CSF alone, equal volumes of blood (FIG. 3f)): approx. 5 fold
adhesion of progenitor cells to stroma ([2]; EGF 200 ng/ml (FIG. 7a)): significantly enhanced adhesion
Cdc42 activity (GTP-bound form) in BM cells (Cdc42): significant increase

mobilization efficiency of progenitor cells in G-CSF stimulated animals (CFC in peripheral blood) (fold reduction) [3]: 4
stem cell mobilization to PB (donor chimerism 3 months after competitive transplant) [3]: < 5 fold less
Molecule: Murine recombinant EGF (epidermal growth factor) (from UniProt P01132 977-1029) (ligand)

B1: G-CSF: huG-CSF (Amgen), granulocyte colony-stimulating factor (protein, UniProt P09919 31-207, looked up)
Granulocyte …: TPLGPASSLPQSFLLKCLEQVRKIQGDGAALQEKLVSECATYKLCHPEELVLLGHSLGIPWAPLSSCPSQALQLAGCLSQLHSGLFLYQGLLQALEGISPELGPTLDTLQLDVADFATTIWQQMEELGMAPALQPTQGAMPAFASAFQRRAGGVLVASHLQSFLEVSYRVLRHLAQP
Cdc42 activity in LD-BM cells (Cdc42; B6 animals, G-CSF treated relative to control non-treated animals (FIG. 7e)): significantly increased
Cdc42 activity in LD-BM cells (Cdc42; line 1804 animals upon G-CSF treatment (FIG. 7e)): not being altered
EGFR expression levels in BM HSPCs (EGFR): decreased
